# Laboratory results as given in US7271288B2, “Aromatic compounds” (Kyushu University, National University Corporation, priority 2002, dated 2007).
# Tests used:
# Gelation test = format: physicochemical; set-up: key to gelation ability: I = insoluble; S = soluble; P = precipitate; G = gel; pG = partial gel; conditions: for gelation ability: 10 mM, 30 minutes at room temperature
# Protocol: To a septum-capped test tube (i.d. 5 mm) were added compounds 1 or 2 and a solvent (100 μl) so that the concentration of the resultant solution was 10 mM and the solution was sonicated and heated with a heat gun until the solid was dissolved. After standing for 30 minutes at room temperature, the sample was turned upside down and judged visually. […] The samples with no observed gel formation were subjected to standing at a lower temperature for further judgment.
# [1] = Solubility observed when preparing samples for fluorescence measurement; format: physicochemical
# Protocol: Gels were prepared from compounds 1 and 2 with cyclohexane (hereinafter referred to as cyclohexane gel(s)). The concentration of compound 1 or 2 in cyclohexane was adjusted to 5 mM. Chloroform solutions of compounds 1, 2 and 3 (5×10^−5 M) were also prepared. The fluorescence spectroscopic measurement was carried out for each gel. The excitation wavelength λex for the measurements was 340 nm.
# As both compounds 1 and 2 were soluble in hot cyclohexane, solid samples were prepared by dissolving the compounds in cyclohexane followed by removing the solvent with a rotary evaporator at room temperature. Each of the solid samples thus prepared was then subjected to fluorescence spectroscopic measurement. As shown in FIG. 8 and FIG. 9, the difference in the spectra reflecting the difference in the gel was also observed in the solid state. Therefore, it was confirmed that the assembly structure of the gel is maintained even in the solid state.
gelation ability (Gelation test; Benzene),gelation ability (Gelation test; Carbon tetrachloride),gelation ability (Gelation test; Chloroform),gelation ability (Gelation test; Cyclohexane),gelation ability (Gelation test; Diphenyl ether),gelation ability (Gelation test; Ethanol),gelation ability (Gelation test; Ethyl acetate),gelation ability (Gelation test; Hexane),gelation ability (Gelation test; Hexanol),gelation ability (Gelation test; Octane),gelation ability (Gelation test; Tetrahydrofuran),gelation ability (Gelation test; Toluene),gelation ability (Gelation test; p-Xylene),solubility ([1]; hot cyclohexane),SMILES,gelation (Gelation test; solvents not specified),solubility (Gelation test; solvents not specified),solubility ([1]; chloroform),solubility ([1]; cyclohexane)
S,S,S,G,S,I,I,G,P,G,S,S,G,soluble,CCCCCCCCCCCCNC(=O)COc1cc2c3cc(OCC(=O)NCCCCCCCCCCCC)c(OCC(=O)NCCCCCCCCCCCC)cc3c3cc(OCC(=O)NCCCCCCCCCCCC)c(OCC(=O)NCCCCCCCCCCCC)cc3c2cc1OCC(=O)NCCCCCCCCCCCC [Compound 1],,,,
P,S,S,pG,S,I,I,I,I,I,P,P,P,soluble,CCCCNC(=O)COc1cc2c3cc(OCC(=O)NCCCC)c(OCC(=O)NCCCC)cc3c3cc(OCC(=O)NCCCC)c(OCC(=O)NCCCC)cc3c2cc1OCC(=O)NCCCC [Compound 2],,,,
,,,,,,,,,,,,,,"CCCCCCCCCCCCOc1cc2c3cc(OCCCCCCCCCCCC)c(OCCCCCCCCCCCC)cc3c3cc(OCCCCCCCCCCCC)c(OCCCCCCCCCCCC)cc3c2cc1OCCCCCCCCCCCC [Compound 3, reference compound]",no gelation was observed,high solubility,soluble,soluble
